{"source": "patent US10293048B2", "about": "“Pharmaceutical compositions comprising boronic acid compounds” (DR. REDDY'S LABORATORIES LIMITED, priority 2012, dated 2019)", "origin": "cited, not measured here", "conditions": "1.3 mM in 2% ethyl alcohol/98% normal saline pH 2.8, 25° C., 14 days", "note": "Like-named read-outs stand apart in the source and are kept apart here."}
{"compound": "CC(C)C[C@H](NC(=O)[C@H](Cc1ccccc1)NC(=O)c1cnccn1)B(O)O", "note": "[bortezomib, [(1R)-3-methyl-1-[[(2S)-1-oxo-3-phenyl-2-[(pyrazinylcarbonyl)amino]propyl]amino]butyl]boronic acid]", "values": [{"measurement": "degradation", "setting": "containing 0.1% of ascorbic acid", "value": 21.8, "unit": "%"}, {"measurement": "degradation", "setting": "no ascorbic acid", "value": 5.9, "unit": "%"}]}
